Measurements: PubChem BioAssay AID1259411 (Chemical Carcinogenesis Research Information System (CCRIS), 2018)
Active and inactive are the calls of the source. The rule behind the calls is not given here.

Test system: rodent carcinogenicity bioassays, tumor incidence
Assay: CCRIS carcinogenicity studies
Procedure, shortened: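 Archive of carcinogenicity, mutagenicity, tumor promotion and tumor inhibition results drawn from journals, NCI reports and other sources, expert-reviewed; covers 1985-2011 and is no longer updated.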

CCOP(=S)(OCC)Oc1ccc2c(C)c(Cl)c(=O)oc2c1
carcinogen call (Species: MOUSE, Strain/Sex: B6C3F1/FEMALE, Route: ORAL, Dose: 0, 10, 20 PPM IN DIET, Dose: 0, 10, 20 PPM IN DIET): inactive; negative
carcinogen call (Species: MOUSE, Strain/Sex: B6C3F1/MALE, Route: ORAL, Dose: 0, 10, 20 PPM IN DIET, Dose: 0, 10, 20 PPM IN DIET): inactive; negative
carcinogen call (Species: RAT, Strain/Sex: F344/FEMALE, Route: ORAL, Dose: 0, 10, 20 PPM IN DIET, Dose: 0, 10, 20 PPM IN DIET): inactive; negative
carcinogen call (Species: RAT, Strain/Sex: F344/MALE, Route: ORAL, Dose: 0, 10, 20 PPM IN DIET, Dose: 0, 10, 20 PPM IN DIET): inactive; negative
carcinogen call (Species: Rat, Strain/Sex: Wistar/Female (50/group), Route: Oral, Dose: 0 (1% peanut oil), 1, 5, 25 ppm in diet for 24 mo, test material purity 99.2%, Dose: 0 (1% peanut oil), 1, 5, 25 ppm in diet for 24 mo, test material purity 99.2%): inactive; negative. according to dpr evaluator; original data not presented. cholinesteras
carcinogen call (Species: Rat, Strain/Sex: Wistar/Male (50/group), Route: Oral, Dose: 0 (1% peanut oil), 1, 5, 25 ppm in diet for 24 mo, test material purity 99.2%, Dose: 0 (1% peanut oil), 1, 5, 25 ppm in diet for 24 mo, test material purity 99.2%): inactive; negative. according to dpr evaluator; original data not presented. cholinesteras

CN(C)CCN(Cc1cccs1)c1ccccn1
carcinogen call (Species: RAT, Strain/Sex: F344/FEMALE, Route: ORAL, Dose: 0, 1 G/L IN DEIONIZED DRINKING WATER FOR 12 WK WITH NO TREATMENT DURING WK 5 AND 9 (STUDY DURATION: 121 WK)): inactive; negative
carcinogen call (Species: RAT, Strain/Sex: F344/FEMALE, Route: ORAL, Dose: 0, 125, 250 MG/KG IN DIET (TOTAL DOSE: 0; 7; 15 MG/KG) FOR 110 WK (STUDY DURATION: 133 WK), Dose: 0, 125, 250 MG/KG IN DIET (TOTAL DOSE: 0; 7; 15 MG/KG) FOR 110 WK (STUDY DURATION: 133 WK), Tumor Site: Type of Lesion: LIVER: CARCINOMA): active; positive
carcinogen call (Species: RAT, Strain/Sex: F344/MALE,FEMALE, Route: ORAL, Dose: 1000 PPM IN DIET FOR 64 WK (INITIAL DOSES AT 2000 PPM), Tumor Site: Type of Lesion: LIVER: HEPATOCELLULAR CARCINOMA, CHOLANGIOCARCINOMA): active; positive
carcinogen call (Species: RAT, Strain/Sex: F344/MALE, Route: ORAL, Dose: 0, 125, 250 MG/KG IN DIET (TOTAL DOSE: 0; 7; 14 G/KG) FOR 110 WK (STUDY DURATION: 133 WK), Dose: 0, 125, 250 MG/KG IN DIET (TOTAL DOSE: 0; 7; 14 G/KG) FOR 110 WK (STUDY DURATION: 133 WK), Tumor Site: Type of Lesion: LIVER: CARCINOMA): active; positive
carcinogen call (Species: RAT, Strain/Sex: SPRAGUE-DAWLEY/FEMALE, Route: ORAL, Dose: 0, 500, 1000 PPM IN DRINKING WATER 5D/WK FOR LIFE (STUDY DURATION: 576-709 D), Dose: 0, 500, 1000 PPM IN DRINKING WATER 5D/WK FOR LIFE (STUDY DURATION: 576-709 D), Tumor Site: Type of Lesion: LIVER: HEPATOCELLULAR CARCINOMA OR SARCOMA): active; positive
carcinogen call (Species: RAT, Strain/Sex: SPRAGUE-DAWLEY/MALE, Route: ORAL, Dose: 0, 500, 1000 PPM IN DRINKING WATER 5D/WK FOR LIFE (STUDY DURATION: 585-760 D), Dose: 0, 500, 1000 PPM IN DRINKING WATER 5D/WK FOR LIFE (STUDY DURATION: 585-760 D), Tumor Site: Type of Lesion: LIVER: HEPATOCELLULAR CARCINOMA): active; positive

Nc1ccc(NCCO)c([N+](=O)[O-])c1
carcinogen call (Species: MOUSE, Strain/Sex: B6C3F1/MALE, Route: GAVAGE, Dose: 0, 125, 250 MG/KG IN CORN OIL 5 D/WK FOR 104 WK (STUDY DURATION: 105 WK), Dose: 0, 125, 250 MG/KG IN CORN OIL 5 D/WK FOR 104 WK (STUDY DURATION: 105 WK), Tumor Site: Type of Lesion: LIVER: HEPATOCELLULAR ADENOMA OR CARCINOMA): equivocal
carcinogen call (Species: RAT, Strain/Sex: F344/FEMALE, Route: GAVAGE, Dose: 0, 250, 500 MG/KG IN CORN OIL 5 D/WK FOR 105 WK (STUDY DURATION: 105 WK), Dose: 0, 250, 500 MG/KG IN CORN OIL 5 D/WK FOR 105 WK (STUDY DURATION: 105 WK)): inactive; negative
carcinogen call (Species: RAT, Strain/Sex: F344/MALE, Route: GAVAGE, Dose: 0, 250, 500 MG/KG IN CORN OIL 5 D/WK FOR 105 WK (STUDY DURATION: 105 WK), Dose: 0, 250, 500 MG/KG IN CORN OIL 5 D/WK FOR 105 WK (STUDY DURATION: 105 WK)): inactive; negative

[K+]
carcinogen call (Species: RAT, Strain/Sex: F344/FEMALE, Route: ORAL, Dose: 0, 10, 100, 1000 PPM IN DRINKING WATER FOR 2 YR (STUDY DURATION: 2 YR), Dose: 0, 10, 100, 1000 PPM IN DRINKING WATER FOR 2 YR (STUDY DURATION: 2 YR), Tumor Site: Type of Lesion: SALIVARY GLAND: SQUAMOUS CELL CARCINOMA): active; positive
carcinogen call (Species: RAT, Strain/Sex: F344/MALE, Route: ORAL, Dose: 0, 10, 100, 1000 PPM IN DRINKING WATER FOR 2 YR (STUDY DURATION: 2 YR), Dose: 0, 10, 100, 1000 PPM IN DRINKING WATER FOR 2 YR (STUDY DURATION: 2 YR), Tumor Site: Type of Lesion: SALIVARY GLAND: SQUAMOUS CELL CARCINOMA): active; positive

C=CN(CC)N=O
carcinogen call (Species: HAMSTER, Strain/Sex: SYRIAN/FEMALE, Route: SUBCUTANEOUS, Dose: 0.63-5 MG/KG IN OLIVE OIL 1/WK FOR LIFE, Tumor Site: Type of Lesion: NASAL CAVITY: PAPILLOMA, EPIDERMOID CARCINOMA, ADENOCARCINOMA, LARYNX: PAPILLOMA, EPIDERMOID CARCINOMA, TRACHEA: PAPILLO, Tumor Site: Type of Lesion: NASAL CAVITY: PAPILLOMA, EPIDERMOID CARCINOMA, ADENOCARCINOMA, LARYNX: PAPILLOMA, EPIDERMOID CARCINOMA, TRACHEA: PAPILLO): active; positive
carcinogen call (Species: HAMSTER, Strain/Sex: SYRIAN/MALE, Route: SUBCUTANEOUS, Dose: 0.63-5 MG/KG IN OLIVE OIL 1/WK FOR LIFE, Tumor Site: Type of Lesion: NASAL CAVITY: PAPILLOMA, EPIDERMOID CARCINOMA, ADENOCARCINOMA, LARYNX: PAPILLOMA, EPIDERMOID CARCINOMA, TRACHEA: PAPILLO, Tumor Site: Type of Lesion: NASAL CAVITY: PAPILLOMA, EPIDERMOID CARCINOMA, ADENOCARCINOMA, LARYNX: PAPILLOMA, EPIDERMOID CARCINOMA, TRACHEA: PAPILLO): active; positive
carcinogen call (Species: RAT, Route: INTRAVENOUS, Dose: 10.0 MG/KG 1/WK(MEAN TOTAL DOSE 0.25 G/KG), Tumor Site: Type of Lesion: ESOPHAGUS): active; positive
carcinogen call (Species: RAT, Route: ORAL, Dose: 1.30, 2.50 MG/KG 7/WK (MEAN TOTAL DOSE 0.23; 0.42 G/KG), Dose: 1.30, 2.50 MG/KG 7/WK (MEAN TOTAL DOSE 0.23; 0.42 G/KG), Tumor Site: Type of Lesion: ESOPHAGUS): active; positive

Clc1c(Cl)c(Cl)c(Cl)c(Cl)c1Cl
carcinogen call (Species: HAMSTER, Route: ORAL, Tumor Site: Type of Lesion: THYROID GLAND, LIVER): active; positive
carcinogen call (Species: MOUSE, Route: ORAL, Tumor Site: Type of Lesion: LIVER): active; positive
carcinogen call (Species: RAT, Strain/Sex: F344/FEMALE, Route: ORAL, Dose: 0, 0.02% IN DIET FOR 30 WK (STUDY DURATION: 35 WK)): inactive; negative
carcinogen call (Species: RAT, Strain/Sex: F344/FEMALE, Route: ORAL, Dose: 0, 0.02% OF DIET FOR 90 WK (STUDY DURATION: 90 WK), Tumor Site: Type of Lesion: LIVER: HEPATOCELLULAR CARCINOMA OR NEOPLASTIC NODULE): active; positive
carcinogen call (Species: RAT, Strain/Sex: F344/MALE, Route: ORAL, Dose: 0, 0.02% IN DIET FOR 30 WK (STUDY DURATION: 35 WK)): inactive; negative
carcinogen call (Species: RAT, Strain/Sex: F344/MALE, Route: ORAL, Dose: 0, 0.02% OF DIET FOR 90 WK (STUDY DURATION: 90 WK)): inactive; negative
